In patent US11771681B2, “Therapeutic compounds” (SMALL PHARMA LTD, priority 2019, dated 2023):

Assays:
[1] = In vitro intrinsic clearance in human hepatocytes; assay type: in vitro ADME; details: both sexes, pooled hepatocytes in suspension, human (mixed gender) hepatocytes pooled from 10 donors, 0.545 million cells/mL, up to 60 minutes at 37° C., weighted on ratio of D0, D1 and D2
Experimental: (§1) Human (mixed gender) hepatocytes pooled from 10 donors (0.545 million cells/mL) were used to investigate the in vitro intrinsic clearance of DMT and 6 deuterated analogues.
(§2) A concentration of 5 μM was used for all test compounds, as well as sumatriptan, serotonin, benzylamine controls. This concentration was chosen in order to maximise the signal-to-noise ratio, while remaining under the Michaelis constant (Km) for the monoamine oxidase enzyme (MAO). Diltiazem and diclofenac controls were used at a laboratory-validated concentration of 1 μM.
(§3) Test compounds were mixed with the hepatocyte suspension within a 96-well plate and incubated for up to 60 minutes at 37° C. […] At 7 time points, small aliquots were withdrawn, and the test compound/blend concentration therein was measured by LC-MS/MS. The time points measured were 2, 4, 8, 15, 30, 45 and 60 minutes. […]
(§4) The MRM transitions were determined from a preliminary analysis of DMT samples containing either no deuterium (for D0 transition), or high levels of either D1 or D2 deuteration (for the D1 and D2 transitions respectively).
(§5) The resulting concentration-time profile was then used to calculate intrinsic clearance (CLint) and half-life (t½). […] Intrinsic clearance is calculated from the slope/elimination rate constant and the formula is CLint=(−1000*slope)/cell density in 1E6 cells/ml, to give units of microlitre/min/million cells. […]

human hepatocytes = experiment: In vitro intrinsic clearance in human hepatocytes; assay type: in vitro ADME; details: human (mixed gender) hepatocytes pooled from 10 donors, 0.545 million cells/mL; 5 μM; up to 60 minutes at 37° C.; calculated, weighted on ratio of D0, D1 and D2
Experimental: as §1, §2, §3, §4, §5

SMILES: CN(C)CCc1c[nH]c2ccccc12 [DMT, N,N-dimethyltryptamine]
- hepatocyte CLint at 5 μM [1]: 13.8 µL/min/1e6 cells
- Half-life (human hepatocytes): 1.54 h
